PubChem BioAssay (NCI)
In brackets after ≈: the same amount, converted by molar mass.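 Protocol summary: plate cells (96-well), add compound at 5 concentrations, incubate 48 h, interpolate endpoints linearly. GI50 is the concentration that inhibits growth by half. At the TGI there is no net growth.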

How the values were obtained:
Test in all cases: NCI tumour cell line growth inhibition, 48 h
RXF 393 renal = test system: RXF 393 renal
EKVX NSCLC = test system: EKVX NSCLC
DU-145 prostate = test system: DU-145 prostate
NCI-H23 lung = test system: NCI-H23 lung
OVCAR-8 ovarian = test system: OVCAR-8 ovarian
MOLT-4 leukemia = test system: MOLT-4 leukemia
HCT-15 colon = test system: HCT-15 colon
HCC-2998 colon = test system: HCC-2998 colon
HL-60(TB) leukemia = test system: HL-60(TB) leukemia
COLO 205 colon = test system: COLO 205 colon

## COc1c(O)cc(C(=O)O[C@@H]2Cc3c(O)cc(O)cc3O[C@@H]2c2cc(O)c(O)c(O)c2)cc1O
RXF 393 renal
  TGI: 37.2 µM
EKVX NSCLC
  TGI: 61.6 µM
DU-145 prostate
  TGI: 46.7 µM
NCI-H23 lung
  TGI: 98.5 µM
OVCAR-8 ovarian
  TGI: 54.1 µM
MOLT-4 leukemia
  TGI: 56.8 µM
HCT-15 colon
  TGI: 86.2 µM
HCC-2998 colon
  TGI: > 100 µM
HL-60(TB) leukemia
  TGI: 63 µM

## S=C1SC(c2ccc(Cl)cc2)(c2ccc(Cl)cc2)c2ccccc21
RXF 393 renal
  TGI: > 100 µM
EKVX NSCLC
  TGI: > 100 µM
DU-145 prostate
  TGI: > 100 µM
NCI-H23 lung
  TGI: > 100 µM
OVCAR-8 ovarian
  TGI: > 100 µM
MOLT-4 leukemia
  TGI: > 100 µM
HCT-15 colon
  TGI: > 100 µM
HCC-2998 colon
  TGI: > 100 µM
COLO 205 colon
  TGI: > 100 µM

## Cc1cc(C#N)c(Nc2c(C)cccc2[N+](=O)[O-])s1
RXF 393 renal
  TGI: 55.4 µM
EKVX NSCLC
  TGI: > 100 µM
DU-145 prostate
  TGI: > 100 µM
NCI-H23 lung
  TGI: > 100 µM
OVCAR-8 ovarian
  TGI: > 100 µM
MOLT-4 leukemia
  TGI: > 100 µM
HCT-15 colon
  TGI: > 100 µM
HCC-2998 colon
  TGI: > 100 µM
COLO 205 colon
  TGI: > 100 µM

## Cc1ccc(C)c(NC(=O)C(Cc2c[nH]c3ccccc23)NC(=O)OCc2ccccc2)c1 (stereo not given)
RXF 393 renal
  TGI: 22 µM
EKVX NSCLC
  TGI: 49 µM
DU-145 prostate
  TGI: 33.7 µM
NCI-H23 lung
  TGI: 68.4 µM
OVCAR-8 ovarian
  TGI: > 100 µM
MOLT-4 leukemia
  TGI: 19.6 µM
HCT-15 colon
  TGI: > 100 µM
COLO 205 colon
  TGI: 46.1 µM
HL-60(TB) leukemia
  TGI: 15.4 µM

## COc1cc2c(cc1OC)C(Cc1c3ccccc3cc3ccccc13)N(C)CC2 (stereo not given)
RXF 393 renal
  TGI: 32.5 µM
EKVX NSCLC
  TGI: 96.8 µM
NCI-H23 lung
  TGI: > 85.3 µM
OVCAR-8 ovarian
  TGI: > 90.7 µM
MOLT-4 leukemia
  TGI: 58.3 µM
HCT-15 colon
  TGI: > 87.6 µM
COLO 205 colon
  TGI: 29.7 µM
HL-60(TB) leukemia
  TGI: 31.3 µM

## S=C(Nc1ccccc1)N1N=C2c3ccccc3CC[C@H]2[C@@H]1c1ccccc1
RXF 393 renal
  TGI: > 100 µM
EKVX NSCLC
  TGI: > 100 µM
NCI-H23 lung
  TGI: > 100 µM
OVCAR-8 ovarian
  TGI: > 100 µM
MOLT-4 leukemia
  TGI: > 100 µM
HCT-15 colon
  TGI: > 100 µM
HCC-2998 colon
  TGI: > 100 µM
HL-60(TB) leukemia
  TGI: 4.83 µM

## Cn1c(=O)c2nc(N3CCCCC3)cnc2n(C)c1=O
EKVX NSCLC
  TGI: > 100 µM
NCI-H23 lung
  TGI: > 100 µM
OVCAR-8 ovarian
  TGI: > 100 µM
MOLT-4 leukemia
  TGI: > 100 µM
HCT-15 colon
  TGI: > 100 µM
HCC-2998 colon
  TGI: > 100 µM
COLO 205 colon
  TGI: > 100 µM
HL-60(TB) leukemia
  TGI: > 100 µM

## CC(=O)Nc1ccc(-c2nc3ccccc3s2)cc1O
RXF 393 renal
  TGI: > 100 µM
DU-145 prostate
  TGI: > 100 µM
NCI-H23 lung
  TGI: > 100 µM
OVCAR-8 ovarian
  TGI: > 100 µM
MOLT-4 leukemia
  TGI: 85.6 µM
HCT-15 colon
  TGI: > 100 µM
HCC-2998 colon
  TGI: > 100 µM
COLO 205 colon
  TGI: > 100 µM

## N#CC(c1cc(Cl)ncn1)c1nc2ccccc2s1 (stereo not given)
RXF 393 renal
  TGI: 42.5 µM
EKVX NSCLC
  TGI: 58.1 µM
DU-145 prostate
  TGI: 24.2 µM
NCI-H23 lung
  TGI: 19.5 µM
OVCAR-8 ovarian
  TGI: 12.5 µM
MOLT-4 leukemia
  TGI: > 100 µM
HCT-15 colon
  TGI: 15.6 µM
COLO 205 colon
  TGI: 57.6 µM

## CN1OC2OC(=O)OC2[C@H]1[C@H]1O[C@H](c2ccccc2)OC1(C)c1cc(OC(=O)c2ccccc2)ccc1OC(=O)c1ccccc1 (stereo not given in full)
RXF 393 renal
  TGI: > 50 µM
EKVX NSCLC
  TGI: > 50 µM
NCI-H23 lung
  TGI: > 50 µM
OVCAR-8 ovarian
  TGI: > 50 µM
MOLT-4 leukemia
  TGI: > 50 µM
HCT-15 colon
  TGI: > 50 µM
COLO 205 colon
  TGI: > 50 µM
HL-60(TB) leukemia
  TGI: > 50 µM

## O=C1NN(c2ccccc2)C(=O)C2C3c4ccccc4C(c4ccccc43)C12 (stereo not given)
RXF 393 renal
  TGI: > 100 µM
EKVX NSCLC
  TGI: > 100 µM
DU-145 prostate
  TGI: > 100 µM
NCI-H23 lung
  TGI: > 100 µM
OVCAR-8 ovarian
  TGI: > 100 µM
HCT-15 colon
  TGI: > 100 µM
HCC-2998 colon
  TGI: > 100 µM
COLO 205 colon
  TGI: > 100 µM

## CCNCCCCNCC
RXF 393 renal
  TGI: > 3750 µM
EKVX NSCLC
  TGI: > 3750 µM
NCI-H23 lung
  TGI: > 3750 µM
OVCAR-8 ovarian
  TGI: > 3750 µM
MOLT-4 leukemia
  TGI: > 3750 µM
HCT-15 colon
  TGI: > 3750 µM
HCC-2998 colon
  TGI: > 3750 µM
COLO 205 colon
  TGI: > 3750 µM
HL-60(TB) leukemia
  TGI: > 1190 µM

## NC(N)=Nc1nc2ccccc2[nH]1
RXF 393 renal
  GI50: 72.5 µg/mL (≈ 414 µM)
  TGI: > 150 µg/mL
EKVX NSCLC
  GI50: 57.4 µg/mL (≈ 328 µM)
  TGI: > 150 µg/mL
NCI-H23 lung
  GI50: 121 µg/mL (≈ 691 µM)
  TGI: > 150 µg/mL
OVCAR-8 ovarian
  GI50: 76.5 µg/mL (≈ 437 µM)
  TGI: > 150 µg/mL
MOLT-4 leukemia
  GI50: 5.03 µg/mL (≈ 28.7 µM)
  TGI: 37.3 µg/mL
HCT-15 colon
  GI50: 80.9 µg/mL (≈ 462 µM)
  TGI: > 150 µg/mL
HCC-2998 colon
  GI50: 34.1 µg/mL (≈ 195 µM)
  TGI: > 150 µg/mL
COLO 205 colon
  GI50: 61.7 µg/mL (≈ 352 µM)
  TGI: > 150 µg/mL
HL-60(TB) leukemia
  GI50: 3.87 µg/mL (≈ 22.1 µM)
  TGI: 17.2 µg/mL

## CC1=C2C(O)C(C(C)C(=O)NC(C)C)CCC2(C)C=CC1=O (stereo not given)
RXF 393 renal
  TGI: > 100 µM
EKVX NSCLC
  TGI: > 100 µM
NCI-H23 lung
  TGI: > 100 µM
OVCAR-8 ovarian
  TGI: > 100 µM
MOLT-4 leukemia
  TGI: > 100 µM
HCT-15 colon
  TGI: > 100 µM
HCC-2998 colon
  TGI: > 100 µM
COLO 205 colon
  TGI: > 100 µM
HL-60(TB) leukemia
  TGI: > 100 µM

## COc1cccc(-n2c(N)c(-c3nc4cc(C(F)(F)F)ccc4s3)c3ccc([N+](=O)[O-])cc3c2=O)c1
EKVX NSCLC
  TGI: > 100 µM
DU-145 prostate
  TGI: > 100 µM
NCI-H23 lung
  TGI: > 100 µM
MOLT-4 leukemia
  TGI: > 100 µM
HCT-15 colon
  TGI: > 100 µM
HCC-2998 colon
  TGI: > 100 µM
COLO 205 colon
  TGI: > 100 µM

## CCCCCCCC/C=C/CCCCCCCC1CC(O)C(=O)O1 (stereo not given)
EKVX NSCLC
  TGI: > 100 µM
DU-145 prostate
  TGI: > 100 µM
NCI-H23 lung
  TGI: > 100 µM
OVCAR-8 ovarian
  TGI: > 100 µM
MOLT-4 leukemia
  TGI: > 100 µM
HCT-15 colon
  TGI: > 100 µM
HCC-2998 colon
  TGI: > 100 µM
COLO 205 colon
  TGI: > 100 µM
HL-60(TB) leukemia
  TGI: 88.3 µM

## Cc1cc(N=Nc2ccc(N=Nc3c(O)c(S(=O)(=O)O)cc4cc(S(=O)(=O)O)ccc34)cc2C)ccc1N=Nc1ccc2cc(S(=O)(=O)O)cc(S(=O)(=O)O)c2c1
RXF 393 renal
  TGI: > 100 µM
EKVX NSCLC
  TGI: > 100 µM
NCI-H23 lung
  TGI: > 100 µM
OVCAR-8 ovarian
  TGI: > 31.6 µM
MOLT-4 leukemia
  TGI: > 100 µM
HCT-15 colon
  TGI: > 100 µM
HCC-2998 colon
  TGI: > 100 µM
COLO 205 colon
  TGI: > 100 µM
HL-60(TB) leukemia
  TGI: > 100 µM

## CC(=O)O[C@H]1[C@@H](N2CCN(C)CC2)C[C@H]2[C@@H]3CC=C4C[C@@H](N5CCCC5)CC[C@]4(C)[C@H]3CC[C@@]21C
RXF 393 renal
  TGI: 71.8 µM
EKVX NSCLC
  TGI: > 100 µM
NCI-H23 lung
  TGI: > 100 µM
OVCAR-8 ovarian
  TGI: > 100 µM
MOLT-4 leukemia
  TGI: > 100 µM
HCT-15 colon
  TGI: > 100 µM
HCC-2998 colon
  TGI: > 100 µM
COLO 205 colon
  TGI: > 100 µM
HL-60(TB) leukemia
  TGI: 30.1 µM

## O=C(O)CNS(=O)(=O)c1ccc(NC(=O)Nc2ccccc2)cc1
RXF 393 renal
  TGI: > 100 µM
EKVX NSCLC
  TGI: > 100 µM
NCI-H23 lung
  TGI: > 100 µM
OVCAR-8 ovarian
  TGI: > 100 µM
MOLT-4 leukemia
  TGI: > 100 µM
HCT-15 colon
  TGI: > 100 µM
HCC-2998 colon
  TGI: > 100 µM
COLO 205 colon
  TGI: > 100 µM
HL-60(TB) leukemia
  TGI: > 31.6 µM

## N#Cc1c2nc3ccccc3nc2n2ccc3ccccc3c12
EKVX NSCLC
  TGI: > 100 µM
NCI-H23 lung
  TGI: > 100 µM
OVCAR-8 ovarian
  TGI: > 100 µM
MOLT-4 leukemia
  TGI: > 100 µM
HCT-15 colon
  TGI: > 100 µM
HCC-2998 colon
  TGI: > 100 µM
COLO 205 colon
  TGI: > 100 µM
HL-60(TB) leukemia
  TGI: > 100 µM

## O=c1[nH]c(=O)n(C2CC(O)C(CO)O2)cc1C#Cc1cc(F)cc(F)c1 (stereo not given)
EKVX NSCLC
  TGI: > 100 µM
NCI-H23 lung
  TGI: > 100 µM
OVCAR-8 ovarian
  TGI: > 100 µM
MOLT-4 leukemia
  TGI: > 100 µM
HCT-15 colon
  TGI: > 100 µM
HCC-2998 colon
  TGI: > 100 µM
COLO 205 colon
  TGI: > 100 µM

## COc1cc2c(cc1O)C(C)Cc1cc3c(cc1N(C)CC2)OCO3 (stereo not given)
RXF 393 renal
  TGI: 9.48 µM
EKVX NSCLC
  TGI: > 34.9 µM
NCI-H23 lung
  TGI: 20.3 µM
OVCAR-8 ovarian
  TGI: 37.5 µM
MOLT-4 leukemia
  TGI: 36.5 µM
HCT-15 colon
  TGI: 42.7 µM
HCC-2998 colon
  TGI: 19.5 µM
COLO 205 colon
  TGI: > 58.8 µM
HL-60(TB) leukemia
  TGI: > 58.8 µM
